Assay results reported in US5447926A, “Quinolone carboxylic acid derivatives” (SS Pharmaceutical Co., Ltd., priority 1990, dated 1995).
≈ marks a conversion by molar mass, not a printed value.

Assays:
[1] = test system: Staphylococcus aureus FDA 209P; settings: FDA209P, 24 h
[2] = test system: Serratia marcescens NHL; settings: 24 h
[3] = test system: M.R. Staphylococcus aureus 415; settings: 24 h
[4] = test system: Klebsiella pneumonias IFO 13541; type: cell-based; settings: IFO13541, 24 h, Gram-negative, Mueller Hinton Medium, 10^6 /ml, 37° C.
[5] = test system: Klebsiella pneumonias ATCC 10031; settings: ATCC10031, 24 h
[6] = test system: Strepto occus faecalis IFO 12964; settings: 24 h
[7] = test system: Salmonella typhi TD; type: cell-based; settings: Salmonella enterica, 24 h
[8] = test system: Sarcina lutea ATCC 9341; settings: Micrococcus luteus, ATCC9341, 24 h
[9] = test system: Staphylococcus aureus Terajima; settings: 24 h
[10] = test system: M.R. Staphylococcus aureus 421; settings: 24 h
[11] = test system: Shigella flexneri 2b; type: cell-based; settings: 24 h
[12] = test system: Bacillus subtilis ATCC 6633; settings: ATCC6633, 24 h
[13] = test system: Escherichia coli H-12; settings: H12, 24 h
[14] = test system: Staphylococcus aureus Smith; settings: 24 h
[15] = test system: M.R. Staphylococcus aureus 419; settings: 24 h
[16] = test system: Pseudomonas aeruginosa P2; settings: P2, 24 h
[17] = test system: M.R. Staphylococcus aureus 395; settings: 24 h
[18] = test system: Staphylococcus epidermidis ATCC 12228; settings: ATCC12228, 24 h
[19] = test system: Escherichia coli 0-1; settings: Escherichia coli, 01, 24 h
[20] = test system: Proteus vulgaris OXK; settings: 24 h
[21] = test system: M.R. Staphylococcus aureus 420; settings: 24 h
[22] = test system: Pseudomonas aeruginosa IFO 13736; settings: IFO13736, 24 h
[23] = test system: Proteus rettgeri; settings: Providencia rettgeri, 24 h
[24] = test system: Pseudomonas aeruginosa IFO 12582; settings: IFO12582, 24 h
[25] = test system: Micrococcus lysodeikticus IFO 3333; settings: Micrococcus luteus, IFO3333, 24 h

| Structure (SMILES) | MIC [1] | MIC [2] | MIC [3] | MIC [4] | MIC [5] | MIC [6] | MIC [7] | MIC [8] | MIC [9] | MIC [10] | MIC [11] | MIC [12] | MIC [13] | MIC [14] | MIC [15] | MIC [16] | MIC [17] | MIC [18] | MIC [19] | MIC [20] | further results |
| --- | --- | --- | --- | --- | --- | --- | --- | --- | --- | --- | --- | --- | --- | --- | --- | --- | --- | --- | --- | --- | --- |
| CC1COc2c(N3CCN(C)CC3)c(F)cc3c(=O)c(C(=O)O)cn1c23 (stereo not drawn) [Ofloxacin, reference compound] | 0.195 µg/mL (≈ 0.54 µM) | 0.049 µg/mL (≈ 0.136 µM) | 0.39 µg/mL (≈ 1.08 µM) | 0.024 µg/mL (≈ 0.0664 µM) | 0.024 µg/mL (≈ 0.0664 µM) | 1.56 µg/mL (≈ 4.32 µM) | 0.024 µg/mL (≈ 0.0664 µM) | 3.12 µg/mL (≈ 8.63 µM) | 0.78 µg/mL (≈ 2.16 µM) | 0.39 µg/mL (≈ 1.08 µM) | 0.012 µg/mL (≈ 0.0332 µM) | 0.098 µg/mL (≈ 0.271 µM) | 0.098 µg/mL (≈ 0.271 µM) | 0.39 µg/mL (≈ 1.08 µM) | 0.39 µg/mL (≈ 1.08 µM) | 0.78 µg/mL (≈ 2.16 µM) | 0.39 µg/mL (≈ 1.08 µM) | 0.78 µg/mL (≈ 2.16 µM) | 0.098 µg/mL (≈ 0.271 µM) | 0.049 µg/mL (≈ 0.136 µM) | MIC [21]: 0.39 µg/mL (≈ 1.08 µM); MIC [22]: 1.56 µg/mL (≈ 4.32 µM); MIC [23]: 0.098 µg/mL (≈ 0.271 µM); MIC [24]: 3.12 µg/mL (≈ 8.63 µM); MIC [25]: 1.56 µg/mL (≈ 4.32 µM) |
| O=C1CCN(c2c(F)cc3c(=O)c(C(=O)O)cn(C4CC4)c3c2Cl)CCN1 [Compound 2, 8-Chloro-1-cyclopropyl-6-fluoro-7-(2,3,4,5,6,7-hexahydro-1H-1,4-diazepin-5-one-1-yl)-4-oxoquinoline-3-carboxylic acid] | 0.012 µg/mL (≈ 0.0305 µM) | 0.78 µg/mL (≈ 1.98 µM) | 0.024 µg/mL (≈ 0.0609 µM) | 0.098 µg/mL (≈ 0.249 µM) | 0.012 µg/mL (≈ 0.0305 µM) | 0.195 µg/mL (≈ 0.495 µM) | 0.098 µg/mL (≈ 0.249 µM) | 0.195 µg/mL (≈ 0.495 µM) | 0.098 µg/mL (≈ 0.249 µM) | 0.024 µg/mL (≈ 0.0609 µM) | 0.003 µg/mL (≈ 0.00762 µM) | 0.024 µg/mL (≈ 0.0609 µM) | 0.39 µg/mL (≈ 0.99 µM) | 0.012 µg/mL (≈ 0.0305 µM) | 0.024 µg/mL (≈ 0.0609 µM) | 12.5 µg/mL (≈ 31.7 µM) | 0.049 µg/mL (≈ 0.124 µM) | 0.049 µg/mL (≈ 0.124 µM) | 0.195 µg/mL (≈ 0.495 µM) | 0.024 µg/mL (≈ 0.0609 µM) | MIC [21]: 0.024 µg/mL (≈ 0.0609 µM); MIC [22]: 6.25 µg/mL (≈ 15.9 µM); MIC [23]: 0.78 µg/mL (≈ 1.98 µM); MIC [24]: 6.25 µg/mL (≈ 15.9 µM); MIC [25]: 0.049 µg/mL (≈ 0.124 µM) |
| N[C@@H]1CCCCN(c2c(F)cc3c(=O)c(C(=O)O)cn(C4CC4)c3c2Cl)C1 [Compound 15] | 0.012 µg/mL (≈ 0.0305 µM) | 0.195 µg/mL (≈ 0.495 µM) | 0.024 µg/mL (≈ 0.0609 µM) | 0.049 µg/mL (≈ 0.124 µM) | 0.012 µg/mL (≈ 0.0305 µM) | 0.195 µg/mL (≈ 0.495 µM) | 0.049 µg/mL (≈ 0.124 µM) | 0.098 µg/mL (≈ 0.249 µM) | 0.195 µg/mL (≈ 0.495 µM) | 0.049 µg/mL (≈ 0.124 µM) | 0.006 µg/mL (≈ 0.0152 µM) | 0.024 µg/mL (≈ 0.0609 µM) | 0.098 µg/mL (≈ 0.249 µM) | 0.024 µg/mL (≈ 0.0609 µM) | 0.024 µg/mL (≈ 0.0609 µM) | 1.56 µg/mL (≈ 3.96 µM) | 0.049 µg/mL (≈ 0.124 µM) | 0.049 µg/mL (≈ 0.124 µM) | 0.098 µg/mL (≈ 0.249 µM) | 0.049 µg/mL (≈ 0.124 µM) | MIC [21]: 0.049 µg/mL (≈ 0.124 µM); MIC [22]: 1.56 µg/mL (≈ 3.96 µM); MIC [23]: 0.195 µg/mL (≈ 0.495 µM); MIC [24]: 0.78 µg/mL (≈ 1.98 µM); MIC [25]: 0.195 µg/mL (≈ 0.495 µM) |
